Experimental data taken from ChEMBL document CHEMBL4706559, “New indolylarylsulfone non-nucleoside reverse transcriptase inhibitors show low nanomolar inhibition of single and double HIV-1 mutant strains” (Eur J Med Chem, 2020).

Test system: Human immunodeficiency virus 1
Assay: Antiviral activity against HIV1 harboring RT Y181C mutant infected in human MT4 cells assessed as protection against virus-induced cytopathic effect by MTT assay
Format: functional, organism-based
Conditions: Human immunodeficiency virus 1, MT4

Row | Compound | EC50 [nM]
1 | Cc1cc(C)cc(S(=O)(=O)c2c(C(=O)NCCc3ccccc3O)[nH]c3ccc(Cl)cc23)c1 | < 0.7
2 | Cc1cc(C#N)cc(C)c1Oc1nc(Nc2ccc(C#N)cc2)nc(N)c1Br [ETRAVIRINE] | 18
3 | Cc1cc(C)cc(S(=O)(=O)c2c(C(=O)NCc3cc(O)ncn3)[nH]c3ccc(Cl)cc23)c1 | 0.7
4 | Cc1cc(C)cc(S(=O)(=O)c2c(C(=O)NCC(=O)NCc3cccc(O)c3)[nH]c3ccc(Cl)cc23)c1 | 7.6
5 | Cc1cc(C)cc(S(=O)(=O)c2c(C(=O)NC(C)c3ccccc3O)[nH]c3ccc(Cl)cc23)c1 (stereo not given) | 19
6 | Cc1cc(C)cc(S(=O)(=O)c2c(C(=O)Nc3ccc(CO)cc3)[nH]c3ccc(Cl)cc23)c1 | 22

Test system: Human immunodeficiency virus 1
Assay: Resistance index, ratio of EC50 for antiviral activity against HIV1 harboring RT K103N/Y181C double mutant infected in human MT4 cells to EC50 for antiviral activity against HIV1 NL4-3 infected in human MT4 cells
Format: functional
Conditions: not given

Row | Compound | Ratio EC50
7 | Cc1cc(C)cc(S(=O)(=O)c2c(C(=O)NCCc3ccccc3O)[nH]c3ccc(Cl)cc23)c1 | >473
8 | Cc1cc(C)cc(S(=O)(=O)c2c(C(=O)NCc3cc(O)ncn3)[nH]c3ccc(Cl)cc23)c1 | >20385
9 | Cc1cc(C)cc(S(=O)(=O)c2c(C(=O)NCC(=O)NCc3cccc(O)c3)[nH]c3ccc(Cl)cc23)c1 | >5925
10 | Cc1cc(C)cc(S(=O)(=O)c2c(C(=O)NC(C)c3ccccc3O)[nH]c3ccc(Cl)cc23)c1 (stereo not given) | >946
11 | Cc1cc(C)cc(S(=O)(=O)c2c(C(=O)Nc3ccc(CO)cc3)[nH]c3ccc(Cl)cc23)c1 | >27904

Target: not listed separately
Assay: Inhibition of RNA-dependent DNA polymerase activity of recombinant HIV-1 p66/p51 reverse transcriptase Y188L mutant assessed as inhibition of [3H]dTTP incorporation using poly(rA)/oligo(dT) as templates incubated for 15 mins by MicroBeta scintillation counting method
Design: species or system Human immunodeficiency virus 1
Conditions: not given

Row | Compound | IC50 [nM]
12 | Cc1cc(C#N)cc(C)c1Oc1nc(Nc2ccc(C#N)cc2)nc(N)c1Br [ETRAVIRINE] | 164

Test system: Human immunodeficiency virus 1
Assay: Antiviral activity against HIV1 harboring RT Y188L mutant infected in human MT4 cells assessed as protection against virus-induced cytopathic effect by MTT assay
Format: functional, organism-based
Conditions: Human immunodeficiency virus 1, MT4

Row | Compound | EC50 [nM]
13 | Cc1cc(C)cc(S(=O)(=O)c2c(C(=O)NCCc3ccccc3O)[nH]c3ccc(Cl)cc23)c1 | 207
14 | Cc1cc(C#N)cc(C)c1Oc1nc(Nc2ccc(C#N)cc2)nc(N)c1Br [ETRAVIRINE] | 16
15 | Cc1cc(C)cc(S(=O)(=O)c2c(C(=O)NCc3cc(O)ncn3)[nH]c3ccc(Cl)cc23)c1 | 106
16 | Cc1cc(C)cc(S(=O)(=O)c2c(C(=O)NCC(=O)NCc3cccc(O)c3)[nH]c3ccc(Cl)cc23)c1 | 3950
17 | Cc1cc(C)cc(S(=O)(=O)c2c(C(=O)NC(C)c3ccccc3O)[nH]c3ccc(Cl)cc23)c1 (stereo not given) | 190

Test system: Human immunodeficiency virus 1
Assay: Antiviral activity against HIV-1 NL4-3 infected in human MT-4 cells assessed as virus induced cytopathic effect by MTT assay
Format: functional, organism-based
Conditions: Human immunodeficiency virus 1, NL4-3, MT4

Row | Compound | EC50 [nM]
18 | Cc1cc(C)cc(S(=O)(=O)c2c(C(=O)NCCc3ccccc3O)[nH]c3ccc(Cl)cc23)c1 | < 0.7
19 | Cc1cc(C#N)cc(C)c1Oc1nc(Nc2ccc(C#N)cc2)nc(N)c1Br [ETRAVIRINE] | 16.1
20 | Cc1cc(C)cc(S(=O)(=O)c2c(C(=O)NCc3cc(O)ncn3)[nH]c3ccc(Cl)cc23)c1 | < 0.7
21 | Cc1cc(C)cc(S(=O)(=O)c2c(C(=O)NCC(=O)NCc3cccc(O)c3)[nH]c3ccc(Cl)cc23)c1 | < 0.6
22 | Cc1cc(C)cc(S(=O)(=O)c2c(C(=O)NC(C)c3ccccc3O)[nH]c3ccc(Cl)cc23)c1 (stereo not given) | < 0.7
23 | Cc1cc(C)cc(S(=O)(=O)c2c(C(=O)Nc3ccc(CO)cc3)[nH]c3ccc(Cl)cc23)c1 | < 0.7

Test system: Human immunodeficiency virus 1
Assay: Resistance index, ratio of EC50 for antiviral activity against HIV1 harboring RT Y181C mutant infected in human MT4 cells to EC50 for antiviral activity against HIV1 NL4-3 infected in human MT4 cells
Format: functional
Conditions: not given

Row | Compound | Ratio EC50
24 | Cc1cc(C)cc(S(=O)(=O)c2c(C(=O)NCC(=O)NCc3cccc(O)c3)[nH]c3ccc(Cl)cc23)c1 | >13
25 | Cc1cc(C)cc(S(=O)(=O)c2c(C(=O)NC(C)c3ccccc3O)[nH]c3ccc(Cl)cc23)c1 (stereo not given) | >27
26 | Cc1cc(C)cc(S(=O)(=O)c2c(C(=O)Nc3ccc(CO)cc3)[nH]c3ccc(Cl)cc23)c1 | >31

Target: not listed separately
Assay: Inhibition of RNA-dependent DNA polymerase activity of recombinant HIV-1 p66/p51 reverse transcriptase K103N/Y181C mutant assessed as inhibition of [3H]dTTP incorporation using poly(rA)/oligo(dT) as templates incubated for 15 mins by MicroBeta scintillation counting method
Design: species or system Human immunodeficiency virus 1
Conditions: not given

Row | Compound | IC50 [nM]
27 | Cc1cc(C#N)cc(C)c1Oc1nc(Nc2ccc(C#N)cc2)nc(N)c1Br [ETRAVIRINE] | 97

Test system: Human immunodeficiency virus 1
Assay: Resistance index, ratio of EC50 for antiviral activity against HIV1 harboring RT Y188L mutant infected in human MT4 cells to EC50 for antiviral activity against HIV1 NL4-3 infected in human MT4 cells
Format: functional
Conditions: not given

Row | Compound | Ratio EC50
28 | Cc1cc(C)cc(S(=O)(=O)c2c(C(=O)NCCc3ccccc3O)[nH]c3ccc(Cl)cc23)c1 | >296
29 | Cc1cc(C)cc(S(=O)(=O)c2c(C(=O)NCc3cc(O)ncn3)[nH]c3ccc(Cl)cc23)c1 | >151
30 | Cc1cc(C)cc(S(=O)(=O)c2c(C(=O)NCC(=O)NCc3cccc(O)c3)[nH]c3ccc(Cl)cc23)c1 | >6590
31 | Cc1cc(C)cc(S(=O)(=O)c2c(C(=O)NC(C)c3ccccc3O)[nH]c3ccc(Cl)cc23)c1 (stereo not given) | >270

Test system: Human immunodeficiency virus 1
Assay: Resistance index, ratio of EC50 for antiviral activity against HIV1 harboring RT K103N mutant infected in human MT4 cells to EC50 for antiviral activity against HIV1 NL4-3 infected in human MT4 cells
Format: functional
Conditions: not given

Row | Compound | Ratio EC50
32 | Cc1cc(C)cc(S(=O)(=O)c2c(C(=O)NCC(=O)NCc3cccc(O)c3)[nH]c3ccc(Cl)cc23)c1 | >728

Test system: Human immunodeficiency virus 1
Assay: Antiviral activity against HIV1 harboring RT K103N mutant infected in human MT4 cells assessed as protection against virus-induced cytopathic effect by MTT assay
Format: functional, organism-based
Conditions: Human immunodeficiency virus 1, MT4

Row | Compound | EC50 [nM]
33 | Cc1cc(C)cc(S(=O)(=O)c2c(C(=O)NCCc3ccccc3O)[nH]c3ccc(Cl)cc23)c1 | < 0.7
34 | Cc1cc(C#N)cc(C)c1Oc1nc(Nc2ccc(C#N)cc2)nc(N)c1Br [ETRAVIRINE] | 0.7
35 | Cc1cc(C)cc(S(=O)(=O)c2c(C(=O)NCc3cc(O)ncn3)[nH]c3ccc(Cl)cc23)c1 | < 0.7
36 | Cc1cc(C)cc(S(=O)(=O)c2c(C(=O)NCC(=O)NCc3cccc(O)c3)[nH]c3ccc(Cl)cc23)c1 | 437
37 | Cc1cc(C)cc(S(=O)(=O)c2c(C(=O)NC(C)c3ccccc3O)[nH]c3ccc(Cl)cc23)c1 (stereo not given) | < 0.7
38 | Cc1cc(C)cc(S(=O)(=O)c2c(C(=O)Nc3ccc(CO)cc3)[nH]c3ccc(Cl)cc23)c1 | < 0.7

Test system: not listed separately
Assay: Cytotoxicity against human MT-4 cells assessed as reduction in cell viability by MTT assay
Format: cell-based, MT4
Conditions: not given

Row | Compound | CC50 [nM]
39 | Cc1cc(C)cc(S(=O)(=O)c2c(C(=O)NCCc3ccccc3O)[nH]c3ccc(Cl)cc23)c1 | 23800
40 | Cc1cc(C#N)cc(C)c1Oc1nc(Nc2ccc(C#N)cc2)nc(N)c1Br [ETRAVIRINE] | > 23000
41 | Cc1cc(C)cc(S(=O)(=O)c2c(C(=O)NCc3cc(O)ncn3)[nH]c3ccc(Cl)cc23)c1 | > 53100
42 | Cc1cc(C)cc(S(=O)(=O)c2c(C(=O)NCC(=O)NCc3cccc(O)c3)[nH]c3ccc(Cl)cc23)c1 | > 47500
43 | Cc1cc(C)cc(S(=O)(=O)c2c(C(=O)NC(C)c3ccccc3O)[nH]c3ccc(Cl)cc23)c1 (stereo not given) | 21800
44 | Cc1cc(C)cc(S(=O)(=O)c2c(C(=O)Nc3ccc(CO)cc3)[nH]c3ccc(Cl)cc23)c1 | 39600

Test system: Human immunodeficiency virus 1
Assay: Antiviral activity against HIV1 harboring RT K103N/Y181C double mutant infected in human MT4 cells assessed as protection against virus-induced cytopathic effect by MTT assay
Format: functional, organism-based
Conditions: Human immunodeficiency virus 1, MT4

Row | Compound | EC50 [nM]
45 | Cc1cc(C)cc(S(=O)(=O)c2c(C(=O)NCCc3ccccc3O)[nH]c3ccc(Cl)cc23)c1 | 331
46 | Cc1cc(C#N)cc(C)c1Oc1nc(Nc2ccc(C#N)cc2)nc(N)c1Br [ETRAVIRINE] | 4.6
47 | Cc1cc(C)cc(S(=O)(=O)c2c(C(=O)NCc3cc(O)ncn3)[nH]c3ccc(Cl)cc23)c1 | 14300
48 | Cc1cc(C)cc(S(=O)(=O)c2c(C(=O)NCC(=O)NCc3cccc(O)c3)[nH]c3ccc(Cl)cc23)c1 | 3560
49 | Cc1cc(C)cc(S(=O)(=O)c2c(C(=O)NC(C)c3ccccc3O)[nH]c3ccc(Cl)cc23)c1 (stereo not given) | 662
50 | Cc1cc(C)cc(S(=O)(=O)c2c(C(=O)Nc3ccc(CO)cc3)[nH]c3ccc(Cl)cc23)c1 | 19500

Test system: not listed separately
Assay: Selectivity ratio of CC50 for human MT4 cells to EC50 for antiviral activity against HIV-1 NL4-3 infected in human MT4 cells
Format: toxicity, cell-based
Conditions: read-out: Ratio CC50/EC50

Row | Compound | selectivity ratio
51 | Cc1cc(C)cc(S(=O)(=O)c2c(C(=O)NCCc3ccccc3O)[nH]c3ccc(Cl)cc23)c1 | > 34000
52 | Cc1cc(C)cc(S(=O)(=O)c2c(C(=O)NCc3cc(O)ncn3)[nH]c3ccc(Cl)cc23)c1 | > 75800
53 | Cc1cc(C)cc(S(=O)(=O)c2c(C(=O)NCC(=O)NCc3cccc(O)c3)[nH]c3ccc(Cl)cc23)c1 | > 79200
54 | Cc1cc(C)cc(S(=O)(=O)c2c(C(=O)NC(C)c3ccccc3O)[nH]c3ccc(Cl)cc23)c1 (stereo not given) | 31100
55 | Cc1cc(C)cc(S(=O)(=O)c2c(C(=O)Nc3ccc(CO)cc3)[nH]c3ccc(Cl)cc23)c1 | > 56600
